Assay results taken from patent publication US10272098B2, “Chelated drug delivery systems” (Drexel University, priority 2013, dated 2019).
Structures can show the parent of a compound that is named as a salt.

Assays:
NIH 3T3 fibroblasts = experiment: Fresh DOX dose- and time-dependent treatment; assay type: cell-based; conditions: nine-day treatment with 0.2 μg/mL DOX; vs untreated control
Source text: The medium was changed every 24 hr.

MDA-MB-231 cells = experiment: Fresh DOX dose- and time-dependent treatment
[1] = cited from earlier work
[2] = systemic administration of 200 mg MH daily (3 mg/kg); human subjects; cited from earlier work
3T3 fibroblast cells = experiment: Cytotoxicity cell counting assay in 3T3 fibroblasts; assay type: cell-based; conditions: 24 h; complex with 4 μg MH in 100 μl or 40 μg/mL fresh MH; vs untreated control
Description: After 24 h, cell viability was determined using a cell counting assay (Roche) according to the manufacturer's instruction, and cell morphology was imaged by staining the cells with cresyl violet (0.5 mg/mL) for 30 min after the cells were fixed. In vitro cytotoxicity of the polyelectrolyte MH/DS/metal ion complexes were studied by using 3T3 fibroblast cells. […] Cell morphology was examined after treatment with MH/DS/metal ion complexes (FIGS. 7C-7F).

In the case of `COc1cccc2c1C(=O)c1c(O)c3c(c(O)c1C2=O)C[C@@](O)(C(=O)CO)C[C@@H]3O[C@H]1C[C@H](N)[C@H](O)[C@H](C)O1` [DOX, doxorubicin], the “cell viability of fibroblasts” value (NIH 3T3 fibroblasts) is reported as “did not significantly reduce the cell viability”, the “time in which all the cancer cells were completely killed” value (MDA-MB-231 cells; DOX 0.2 μg/mL) is reported as 8 days and the “DOX concentration range that effectively kills cancer cells with minimal fibroblast cytotoxicity” value (MDA-MB-231 cells; for 5-9 days) is reported as 0.1 to 0.4 µg/mL. For the same molecule, the “time stock solution is stable” value ([1]; 4 degree) was 1 month, the DOX degraded ([1]; cell culture medium at 37° C., 4 days) was 30%-40% and the “time solution is stable” value ([1]; room temperature, Adriamycin instruction booklets) was 7 days.
For `CN(C)c1ccc(O)c2c1C[C@H]1C[C@H]3[C@H](N(C)C)C(O)=C(C(N)=O)C(=O)[C@@]3(O)C(O)=C1C2=O` [MH, Minocycline hydrochloride], the “MH in the cerebrospinal fluid (CSF)” value [2] is listed as “about 0.5 μg/mL” and the “3T3 fibroblast viability (cell counting assay)” value (3T3 fibroblast cells) is listed as “no significant difference”.
